The source of these data is ChEMBL document CHEMBL1201862, “PubChem BioAssay data set” (2004).

One test addresses Cytochrome P450 3A4 (Homo sapiens, UniProt P08684). To be noted: Potency.
Test [1] has as its target T1, Cytochrome P450 2C9 (Homo sapiens, UniProt P11712).
Test [2] concerns the target T1, Cytochrome P450 2C9. The conditions noted are these: Potency.
In test [3] the target is T2, Mannose-6-phosphate isomerase (Homo sapiens, UniProt P34949).
T2 sequence (P34949 whole entry): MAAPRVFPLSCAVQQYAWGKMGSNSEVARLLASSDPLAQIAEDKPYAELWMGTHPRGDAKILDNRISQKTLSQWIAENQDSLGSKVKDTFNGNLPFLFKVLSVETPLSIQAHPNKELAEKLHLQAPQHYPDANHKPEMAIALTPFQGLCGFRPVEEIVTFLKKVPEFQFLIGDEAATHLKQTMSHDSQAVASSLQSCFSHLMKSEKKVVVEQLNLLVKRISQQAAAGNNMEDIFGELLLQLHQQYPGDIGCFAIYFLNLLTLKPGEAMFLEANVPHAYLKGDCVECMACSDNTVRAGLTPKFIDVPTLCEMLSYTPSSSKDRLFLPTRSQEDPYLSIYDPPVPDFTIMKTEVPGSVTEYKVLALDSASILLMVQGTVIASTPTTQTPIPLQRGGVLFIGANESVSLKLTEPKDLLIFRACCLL
The test can be described thus: human PMI inhibitors, high substrate, primary screen, biochemical, fluorescence intensity, high mannose 6-phosphate (AID 1220).

The target in another test is T3, Protein RecA (Mycobacterium tuberculosis, UniProt P9WHJ3).
T3 sequence (P9WHJ3 whole entry): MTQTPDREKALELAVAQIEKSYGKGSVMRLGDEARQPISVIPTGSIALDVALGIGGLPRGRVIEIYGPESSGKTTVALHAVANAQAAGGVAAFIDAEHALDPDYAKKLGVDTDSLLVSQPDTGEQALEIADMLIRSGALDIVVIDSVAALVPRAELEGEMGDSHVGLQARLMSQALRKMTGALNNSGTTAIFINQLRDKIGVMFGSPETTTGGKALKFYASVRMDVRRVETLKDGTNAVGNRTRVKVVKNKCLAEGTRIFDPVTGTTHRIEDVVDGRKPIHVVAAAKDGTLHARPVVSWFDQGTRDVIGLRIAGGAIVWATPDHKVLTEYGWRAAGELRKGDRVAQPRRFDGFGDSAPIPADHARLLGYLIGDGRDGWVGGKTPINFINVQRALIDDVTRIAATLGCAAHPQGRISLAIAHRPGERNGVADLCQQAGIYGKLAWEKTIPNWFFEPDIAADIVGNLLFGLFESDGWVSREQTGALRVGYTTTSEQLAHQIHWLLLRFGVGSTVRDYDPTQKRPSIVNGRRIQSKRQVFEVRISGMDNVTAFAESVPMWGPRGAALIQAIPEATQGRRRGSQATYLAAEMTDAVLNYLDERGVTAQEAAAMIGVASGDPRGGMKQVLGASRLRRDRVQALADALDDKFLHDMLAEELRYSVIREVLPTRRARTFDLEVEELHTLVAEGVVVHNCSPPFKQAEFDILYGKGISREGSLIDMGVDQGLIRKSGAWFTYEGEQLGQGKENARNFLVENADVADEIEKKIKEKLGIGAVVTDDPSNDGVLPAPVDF
The test can be described thus: Fluorescence Cell-Free Homogeneous Dose Retest to Identify Inhibitors of RecA-Intein Splicing Activity. [Related pubchem assays (depositor defined):AID2097, AID2223, AID489010, AID492950]. Type of test: functional.

Test [4] concerns the target T2, Mannose-6-phosphate isomerase. The experiment in a line: inhibitors of human PMI, primary screen, biochemical, fluorescence intensity, coupled assay (AID 1209).
Test [5] concerns the target T4, Apoptotic protease-activating factor 1 (Homo sapiens, UniProt O14727).
T4 sequence (O14727 whole entry): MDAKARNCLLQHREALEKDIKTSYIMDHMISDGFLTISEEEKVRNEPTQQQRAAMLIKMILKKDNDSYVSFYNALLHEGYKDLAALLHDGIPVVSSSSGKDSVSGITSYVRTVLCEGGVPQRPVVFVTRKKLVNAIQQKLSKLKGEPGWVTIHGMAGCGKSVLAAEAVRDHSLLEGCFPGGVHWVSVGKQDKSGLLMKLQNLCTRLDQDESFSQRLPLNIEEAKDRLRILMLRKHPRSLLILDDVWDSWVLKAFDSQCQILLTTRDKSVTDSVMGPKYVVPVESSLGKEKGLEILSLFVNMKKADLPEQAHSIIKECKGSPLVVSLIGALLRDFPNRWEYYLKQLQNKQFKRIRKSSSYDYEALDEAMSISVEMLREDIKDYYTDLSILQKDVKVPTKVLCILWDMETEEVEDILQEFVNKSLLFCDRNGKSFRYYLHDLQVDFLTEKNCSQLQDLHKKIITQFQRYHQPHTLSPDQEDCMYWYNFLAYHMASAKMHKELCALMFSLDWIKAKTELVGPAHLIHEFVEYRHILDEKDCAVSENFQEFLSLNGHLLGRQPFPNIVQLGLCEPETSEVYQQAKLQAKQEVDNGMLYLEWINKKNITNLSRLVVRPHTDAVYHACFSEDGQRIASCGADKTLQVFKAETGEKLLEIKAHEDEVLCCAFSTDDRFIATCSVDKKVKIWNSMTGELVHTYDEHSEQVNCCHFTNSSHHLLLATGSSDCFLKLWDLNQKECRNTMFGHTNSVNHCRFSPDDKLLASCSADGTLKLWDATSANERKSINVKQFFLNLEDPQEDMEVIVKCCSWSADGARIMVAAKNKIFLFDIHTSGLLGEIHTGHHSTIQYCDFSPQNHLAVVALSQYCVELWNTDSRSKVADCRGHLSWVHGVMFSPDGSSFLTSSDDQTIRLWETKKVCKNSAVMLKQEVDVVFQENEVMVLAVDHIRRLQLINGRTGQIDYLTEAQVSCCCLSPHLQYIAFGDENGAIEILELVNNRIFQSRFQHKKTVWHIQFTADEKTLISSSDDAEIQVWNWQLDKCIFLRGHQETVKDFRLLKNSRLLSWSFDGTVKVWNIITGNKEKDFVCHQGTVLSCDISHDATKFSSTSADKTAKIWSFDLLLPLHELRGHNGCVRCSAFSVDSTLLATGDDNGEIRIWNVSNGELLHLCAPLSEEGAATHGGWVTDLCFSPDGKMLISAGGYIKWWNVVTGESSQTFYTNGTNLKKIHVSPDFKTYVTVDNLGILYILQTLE
Type of test: functional.

Test [6] is described as follows: cytotoxicity in HEK-293T cells, dose response, cytotoxicity control for TCR NF-kB inhibitor project, luminescence, T-cell screen hits (AID 489026).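 Also: cells exposed to compound about 14 hours before the viability readout.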 It counts as functional, cell-based.
Test [7] can be described thus: Luminescence-based counterscreen assay for KLF5 inhibitors: dose response cell-based high throughput screening assay to identify cytotoxic compounds using the IEC-6 intestinal epithelial cell line. [Related pubchem assays: 1700 (Primary screen.), 1834 (Confirmation screen.), 1858 (Summary AID.), 1905 (Counterscreen.)]. It counts as functional.
In another test the test system is HEK293. The test can be described thus: cells. To be noted: Homo sapiens.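 Also: cells exposed to compound for 14 hours overnight before viability readout.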
Test [8] can be described thus: Luminescence Cell-Based Dose Confirmation HTS to Identify Inhibitors of Platelet Dense Granule Release. [Related pubchem assays: 1663 (Primary HTS), 1678 (Summary of Project)]. Type of test: functional.
Test [9] concerns the target Heat shock protein HSP 90-alpha (Homo sapiens, UniProt P07900). Type of test: functional, organism-based.
The test system of a further test is Streptococcus. The experiment in a line: Group A Streptococcus viability loss, dose response, counter-screen for streptokinase expression inhibitor project, luminescence, BacTiterGlo (AID 1915).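 Also: potency for reduction of bacterial viability or growth.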 It counts as functional, organism-based. For orientation: Counterscreens check selectivity or assay interference.
In test [10] the test system is Streptococcus sp. 'group A'. The experiment in a line: growth inhibition of control SK(-) GAS strain, dose response, counter-screen for streptokinase expression inhibitor project, luminescence, kanamycin, BacTiterGlo, confirmation (AID 1900). Type of test: functional, organism-based.
Test [11] deals with Disintegrin and metalloproteinase domain-containing protein 17 (Homo sapiens, UniProt P78536). The test can be described thus: exosite inhibitors of ADAM17, dose response, biochemical (AID 743260).
Sequence of Disintegrin and metalloproteinase domain-containing protein 17 (P78536 whole entry, the tested form may be a part): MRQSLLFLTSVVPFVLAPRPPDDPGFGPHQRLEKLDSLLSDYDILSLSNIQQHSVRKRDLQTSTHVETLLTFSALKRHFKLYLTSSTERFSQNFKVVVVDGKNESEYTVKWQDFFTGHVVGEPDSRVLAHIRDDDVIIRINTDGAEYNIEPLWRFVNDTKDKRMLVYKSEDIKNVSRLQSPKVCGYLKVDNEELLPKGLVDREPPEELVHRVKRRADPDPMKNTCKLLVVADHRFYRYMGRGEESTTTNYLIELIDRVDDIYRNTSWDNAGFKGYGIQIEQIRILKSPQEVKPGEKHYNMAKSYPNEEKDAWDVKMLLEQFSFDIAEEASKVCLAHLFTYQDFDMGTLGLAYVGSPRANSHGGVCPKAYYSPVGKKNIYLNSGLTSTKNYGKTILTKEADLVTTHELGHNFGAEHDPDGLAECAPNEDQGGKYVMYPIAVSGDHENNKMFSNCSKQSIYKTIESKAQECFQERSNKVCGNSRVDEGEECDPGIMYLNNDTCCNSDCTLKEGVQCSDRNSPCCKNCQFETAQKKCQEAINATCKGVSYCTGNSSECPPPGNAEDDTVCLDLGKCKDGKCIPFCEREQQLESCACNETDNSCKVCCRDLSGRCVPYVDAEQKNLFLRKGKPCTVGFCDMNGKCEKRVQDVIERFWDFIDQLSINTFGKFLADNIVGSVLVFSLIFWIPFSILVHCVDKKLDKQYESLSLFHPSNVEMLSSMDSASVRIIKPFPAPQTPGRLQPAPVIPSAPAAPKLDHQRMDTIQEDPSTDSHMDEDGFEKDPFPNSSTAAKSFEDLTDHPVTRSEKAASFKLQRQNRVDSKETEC
In a further test the target is Nonstructural protein 1 (Influenza A virus, UniProt Q194T2). It counts as functional, Influenza A virus (A/California/07/2009(H1N1)).
Sequence of Nonstructural protein 1 (Q194T2 whole entry): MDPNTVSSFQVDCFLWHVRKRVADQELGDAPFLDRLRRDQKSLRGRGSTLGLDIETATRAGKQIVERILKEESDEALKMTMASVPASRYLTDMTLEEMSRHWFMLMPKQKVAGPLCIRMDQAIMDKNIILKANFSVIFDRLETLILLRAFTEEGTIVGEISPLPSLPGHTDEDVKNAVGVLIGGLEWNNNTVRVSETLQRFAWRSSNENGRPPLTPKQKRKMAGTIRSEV
For the next test, the system named is INS1. The experiment in a line: beta cell apoptosis inhibitors, cytokine rescue, dose response, luminescence, retest (AID 449756).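 Also: cell death triggered by IL-1 beta plus TNF-alpha plus IFN-gamma mixture; protective hits raise ATP signal compared with cytokine alone wells.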 It counts as functional, cell-based. The conditions noted are these: Rattus norvegicus.
Test [12] addresses T5, Polyadenylate-binding protein 1 (Homo sapiens, UniProt P11940). The experiment in a line: PABP1 MLLE–PAM2 interaction inhibitors, dose response, miRNA deadenylation inhibitor project, biochemical, fluorescence polarization, Cy5-PAM2 peptide, secondary (AID 602260). It counts as functional. To be noted: read-out: IC50_Mean. In general terms: Polarisation of emitted light reports the rotation of a fluorescent probe.

Test [13] deals with T5, Polyadenylate-binding protein 1. The experiment in a line: PABP1 MLLE–PAM2 binding inhibitor potency, dose response, biochemical, fluorescence polarization, FITC-PAM2 peptide (AID 602259). Type of test: functional. The conditions noted are these: read-out: IC50_Mean.
In the next test the test system is Vero. The experiment in a line: Vero cell cytotoxicity, cytotoxicity control for flavivirus capping enzyme inhibitors (AID 588742). It counts as functional. The conditions noted are these: Chlorocebus sabaeus.
Test [14] is described as follows: ADAM10 protease inhibitors, dose response, selectivity assay for ADAM17 exosite inhibitor project, biochemical, FRET peptide substrate, recombinant human ADAM10 (AID 743259).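 Also: ADAM10 enzyme cleaving a FRET peptide substrate.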

Active and inactive are the calls of the source.

As a reminder, the AC50 is the midpoint of the concentration-response curve, whichever way the signal moves. Broadly, the EC50 is the concentration at which the effect is half-maximal. In general, CC50 refers to the concentration that lowers cell viability or growth by half.

T1 sequence (P11712 whole entry): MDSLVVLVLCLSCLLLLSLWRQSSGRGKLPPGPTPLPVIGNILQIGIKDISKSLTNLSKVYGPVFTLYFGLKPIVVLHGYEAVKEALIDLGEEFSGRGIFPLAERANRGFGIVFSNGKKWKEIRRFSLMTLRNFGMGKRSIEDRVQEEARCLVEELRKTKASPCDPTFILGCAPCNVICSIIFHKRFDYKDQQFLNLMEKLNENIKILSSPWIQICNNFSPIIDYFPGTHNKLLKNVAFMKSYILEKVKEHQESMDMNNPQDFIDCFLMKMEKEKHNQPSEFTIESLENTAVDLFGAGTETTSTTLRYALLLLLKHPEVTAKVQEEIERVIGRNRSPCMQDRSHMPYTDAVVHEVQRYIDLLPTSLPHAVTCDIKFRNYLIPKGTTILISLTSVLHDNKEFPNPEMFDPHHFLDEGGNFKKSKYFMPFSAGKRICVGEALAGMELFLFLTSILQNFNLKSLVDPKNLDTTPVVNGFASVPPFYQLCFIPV
Sequence of Cytochrome P450 3A4 (P08684 whole entry): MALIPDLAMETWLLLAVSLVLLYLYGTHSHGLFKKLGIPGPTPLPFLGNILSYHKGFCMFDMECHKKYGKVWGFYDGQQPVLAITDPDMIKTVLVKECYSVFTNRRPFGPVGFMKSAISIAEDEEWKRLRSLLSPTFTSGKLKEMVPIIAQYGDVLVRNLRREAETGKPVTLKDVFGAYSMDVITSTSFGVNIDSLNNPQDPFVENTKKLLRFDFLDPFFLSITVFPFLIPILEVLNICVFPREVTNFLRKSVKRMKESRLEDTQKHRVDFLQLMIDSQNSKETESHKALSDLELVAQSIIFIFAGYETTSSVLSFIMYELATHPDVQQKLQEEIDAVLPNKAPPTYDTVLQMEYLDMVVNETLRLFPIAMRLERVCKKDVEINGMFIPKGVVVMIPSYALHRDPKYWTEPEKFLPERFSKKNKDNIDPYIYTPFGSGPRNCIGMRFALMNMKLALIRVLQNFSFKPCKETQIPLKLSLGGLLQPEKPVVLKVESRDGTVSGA
T5 sequence (P11940 whole entry): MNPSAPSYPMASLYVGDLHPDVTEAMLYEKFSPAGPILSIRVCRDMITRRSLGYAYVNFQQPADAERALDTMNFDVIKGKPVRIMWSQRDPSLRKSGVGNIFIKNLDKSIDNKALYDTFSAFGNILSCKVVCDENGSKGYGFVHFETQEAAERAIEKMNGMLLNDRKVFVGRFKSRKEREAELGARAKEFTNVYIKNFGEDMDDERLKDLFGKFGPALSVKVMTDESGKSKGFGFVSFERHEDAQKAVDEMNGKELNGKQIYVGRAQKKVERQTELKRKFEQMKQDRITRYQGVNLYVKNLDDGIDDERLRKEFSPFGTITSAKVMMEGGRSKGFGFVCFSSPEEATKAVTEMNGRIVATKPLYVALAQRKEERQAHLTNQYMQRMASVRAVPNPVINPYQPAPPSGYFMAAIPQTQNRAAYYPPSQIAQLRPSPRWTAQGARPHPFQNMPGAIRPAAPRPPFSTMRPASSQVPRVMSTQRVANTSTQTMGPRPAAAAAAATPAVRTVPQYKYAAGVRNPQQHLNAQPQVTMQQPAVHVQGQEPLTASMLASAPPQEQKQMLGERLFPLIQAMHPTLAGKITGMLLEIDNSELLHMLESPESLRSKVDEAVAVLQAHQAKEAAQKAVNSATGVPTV

Take `COc1cc(O)c(C(=O)c2ccccc2)cc1O` [CEAROIN]: the AC50 at Cytochrome P450 3A4 is 0.794 µM (inconclusive).
As to `CC(C)(C)c1ccc(S(=O)(=O)/C=C\C#N)cc1`, the AC50 on Cytochrome P450 2C9 [1] was 7.94 µM (inconclusive); at Cytochrome P450 2C9 [2], 2.51 µM (inconclusive).
As to `c1cc2cn[nH]c2cc1NC1CCCCCC1`, the IC50 in test [3] was > 50 µM (not active); in test [4], > 50 µM (not active); in test [5] it was 1.94 µM (active). Moreover, the EC50 on Protein RecA is 8.81 µM (active).
Turning to `CC(C)(C)c1ccc(C(=O)O/N=C(\N)c2ccccc2)cc1`, the IC50 is > 80 µM (inactive) in test [6], 5.77 µM (active) in [7] and 5.99 µM (active) in the test with HEK293. For the same molecule, the EC50 in test [8] was 4.8 µM (active).
In the case of `COC(=O)[C@@H]1C[C@@]2(O)[C@H](O)[C@H](O)[C@H](O)C[C@H]2N1Cc1ccc(-c2ccccc2)cc1`, at Cytochrome P450 3A4, the half-maximal activity concentration (AC50) was 15.8 µM (inconclusive).
With `OCC1OC(c2ccc3c(c2)OCO3)C=CC1Oc1cc(Cl)cc(Cl)c1` (centres undefined), on Cytochrome P450 2C9 [2], the concentration at half-maximal activity (AC50) is 3.98 µM (inconclusive).
As for `Cc1ccc(S(=O)(=O)Nc2cc(Cl)c(O)c3ncccc23)cc1`, the AC50 in test [9] was 2.38 µM (active); in the test with INS1 it was 2.4 µM (active). Further, the EC50 in the test with Streptococcus was 9.72 µM (active); in [10], 8.9 µM (active). The IC50 was 21.2 µM (inactive) in [11]; 11.5 µM (active) at Nonstructural protein 1; > 66 µM (inactive) in test [12]; > 66 µM (inactive) in test [13]; 4.8 µM (active) in [7]; 11.1 µM (inactive) in [14]. The CC50 with Vero is 5.28 µM (active).
